In PubChem BioAssay AID330 (DTP/NCI, 2004) one finds T/C data, which are given here for 22 molecules.

Several values for one entry are separate records, joined by “and”; a condition that tells them apart may be missing. Identical values can stand only once. Toxic doses and inconclusive results are not listed.

The subject of the test is P388 leukemia ip, CD2F1 mice, survival T/C. Kind of test: NCI In Vivo Anticancer Drug Screen. Data for tumor model P388 Leukemia (intraperitoneal) in CD2F1 (CDF1) mice. The note with it: endpoint: median survival time, higher = longer survival. The method in brief: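 Mice carrying the transplanted tumor received test compound or vehicle. Survival was recorded in each group, and the value is the treated-group measurement divided by that of the vehicle-treated control group.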

The mark [1] stands for this setting: dose: 12.5 mg/kg/injection, schedule: Q01DX009 (ip), vehicle: Klucel (hydroxypropylcellulose) (HPC).
[2] abbreviates: dose: 25.0 mg/kg/injection, schedule: Q01DX009 (ip), vehicle: Klucel (hydroxypropylcellulose) (HPC).
Setting [3] is: dose: 50.0 mg/kg/injection, schedule: Q01DX009 (ip), vehicle: Klucel (hydroxypropylcellulose) (HPC).
The mark [4] stands for this setting: dose: 100.0 mg/kg/injection, schedule: Q01DX009 (ip), vehicle: Klucel (hydroxypropylcellulose) (HPC).
[5] abbreviates: dose: 50.0 mg/kg/injection, schedule: Q01DX005 (ip), vehicle: saline with Tween-80.
The mark [6] stands for this setting: dose: 100.0 mg/kg/injection, schedule: Q01DX005 (ip), vehicle: saline with Tween-80.
Where [7] appears, read: dose: 200.0 mg/kg/injection, schedule: Q01DX005 (ip), vehicle: saline with Tween-80.
The mark [8] stands for this setting: dose: 60.0 mg/kg/injection, schedule: Q01DX005 (ip), vehicle: saline with Tween-80.
Setting [9] is: dose: 120.0 mg/kg/injection, schedule: Q01DX005 (ip), vehicle: saline with Tween-80.
Where [10] appears, read: dose: 100.0 mg/kg/injection, schedule: Q04DX002 (ip), vehicle: saline with Tween-80.
Where [11] appears, read: dose: 200.0 mg/kg/injection, schedule: Q04DX002 (ip), vehicle: saline with Tween-80.
[12] abbreviates: dose: 400.0 mg/kg/injection, schedule: Q04DX002 (ip), vehicle: saline with Tween-80.
The mark [13] stands for this setting: dose: 100.0 mg/kg/injection, schedule: Q01DX001 (ip), vehicle: Klucel (hydroxypropylcellulose) (HPC).
Setting [14] is: dose: 50.0 mg/kg/injection, schedule: Q01DX009 (ip), vehicle: saline with Tween-80.
The mark [15] stands for this setting: dose: 100.0 mg/kg/injection, schedule: Q01DX009 (ip), vehicle: saline with Tween-80.
Where [16] appears, read: dose: 200.0 mg/kg/injection, schedule: Q01DX009 (ip), vehicle: saline with Tween-80.
Where [17] appears, read: dose: 50.0 mg/kg/injection, schedule: Q01DX009 (ip), vehicle: saline.
Setting [18] is: dose: 100.0 mg/kg/injection, schedule: Q01DX009 (ip), vehicle: saline.

Consider `c1ccc(-c2ccc(-c3ccccc3)cc2)cc1`, for which the T/C under setting [1] is 109 % of control, the T/C under setting [2] is 97 % of control, the T/C under setting [3] was 98 % of control and the T/C under setting [4] is 98 % of control.
Consider `CC(/C=C/C(=O)NO)=C\C(C)C(=O)c1ccc(N(C)C)cc1` (stereo not drawn), for which the T/C is 107 % of control (dose: 2.19 mg/kg/injection, schedule: Q01DX009 (ip), vehicle: Klucel (hydroxypropylcellulose) (HPC)); 114 % of control (dose: 4.38 mg/kg/injection, schedule: Q01DX009 (ip), vehicle: Klucel (hydroxypropylcellulose) (HPC)); 122 % of control and 96 % of control (dose: 8.75 mg/kg/injection, schedule: Q01DX009 (ip), vehicle: Klucel (hydroxypropylcellulose) (HPC)); 152 % of control (dose: 8.75 mg/kg/injection, schedule: Q01DX009 (ip), vehicle: saline with Tween-80); 91 % of control (dose: 17.5 mg/kg/injection, schedule: Q01DX009 (ip), vehicle: Klucel (hydroxypropylcellulose) (HPC)); 90 % of control (dose: 17.5 mg/kg/injection, schedule: Q01DX009 (ip), vehicle: saline with Tween-80).
`Nc1ncnc2c1ncn2CC(O)CN(CCO)CCO` (stereo not drawn) (tested in a mixture with another compound): the T/C reads like this: (dose: 60.0 mg/kg/injection, schedule: Q01DX005 (ip), vehicle: saline) 93 % of control; (dose: 120.0 mg/kg/injection, schedule: Q01DX005 (ip), vehicle: saline) 95 % of control; (dose: 240.0 mg/kg/injection, schedule: Q01DX005 (ip), vehicle: saline) 94 % of control.
For `COc1ccc(/C=C2/Oc3c(OC)c(OC)cc(OC)c3C2=O)cc1`, the T/C reads like this: under setting [5], 102 % of control; under setting [6], 98 % of control; under setting [7], 98 % of control.
As for `COC12CCCC3(OCCO3)C1C(Cl)C2Cl` (stereo not drawn), the T/C is, setting by setting: under setting [8], 98 % of control; under setting [9], 88 % of control.
With `CC(C)(C)OC(=O)c1ccc(C(=O)OC(C)(C)C)cc1`, the T/C runs as follows: under setting [10], 97 % of control; under setting [11], 96 % of control; under setting [12], 96 % of control.
As to `Nc1nc2c(ncn2C2OC(CO)C(O)C2O)c(=O)[nH]1.[Cl-].[Cl-].[NH2-].[NH2-].[Pt+4]` (stereo not drawn), the T/C is, setting by setting: (dose: 2.0 mg/kg/injection, schedule: Q01DX009 (ip), vehicle: saline) 118 % of control; (dose: 4.0 mg/kg/injection, schedule: Q01DX009 (ip), vehicle: saline) 122 % of control; (dose: 8.0 mg/kg/injection, schedule: Q01DX009 (ip), vehicle: saline) 172 % of control and 178 % of control; (dose: 16.0 mg/kg/injection, schedule: Q01DX009 (ip), vehicle: saline) 216 % of control and 238 % of control; (dose: 32.0 mg/kg/injection, schedule: Q01DX009 (ip), vehicle: saline) 93 % of control.
Turning to `CCCCOP(O)(=S)OCCCC.[Yb]`, the T/C under setting [10] was 96 % of control, the T/C under setting [11] was 101 % of control and the T/C under setting [12] is 99 % of control.
As to `Cc1cc2nc(NN=O)sc2cc1C`, the T/C (dose: 3.12 mg/kg/injection, schedule: Q01DX009 (ip), vehicle: water) is 109 % of control; the T/C (dose: 6.25 mg/kg/injection, schedule: Q01DX009 (ip), vehicle: water) was 97 % of control; the T/C (dose: 12.5 mg/kg/injection, schedule: Q01DX009 (ip), vehicle: water) was 106 % of control; the T/C (dose: 25.0 mg/kg/injection, schedule: Q01DX009 (ip), vehicle: water) was 104 % of control (2×) and 97 % of control; the T/C (dose: 50.0 mg/kg/injection, schedule: Q01DX009 (ip), vehicle: water) is 102 % of control and 103 % of control and 108 % of control; the T/C (dose: 100.0 mg/kg/injection, schedule: Q01DX009 (ip), vehicle: water) is 123 % of control.
On to `C1CCC2(CC1)CSC2.[Br][Hg][Br]`, for which the T/C is 89 % of control (dose: 6.25 mg/kg/injection, schedule: Q01DX001 (ip), vehicle: saline with Tween-80) and 87 % of control (dose: 12.5 mg/kg/injection, schedule: Q01DX001 (ip), vehicle: saline with Tween-80).
Take `N=c1c2ncn(C3OC(CO)C(O)C3O)c2ncn1O` (stereo not drawn): the T/C is, setting by setting: (dose: 6.25 mg/kg/injection, schedule: Q01DX005 (ip), vehicle: saline) 97 % of control; (dose: 12.5 mg/kg/injection, schedule: Q01DX005 (ip), vehicle: saline) 101 % of control; (dose: 25.0 mg/kg/injection, schedule: Q01DX005 (ip), vehicle: saline) 101 % of control and 112 % of control; under setting [5], 105 % of control; (dose: 50.0 mg/kg/injection, schedule: Q01DX005 (ip), vehicle: saline) 112 % of control and 94 % of control; under setting [6], 100 % of control. For the same molecule, the T/C under setting [7] is 108 % of control.
As for `O=C1NC(=O)C2(OC3c4ccccc4C=NN3C3=C2C(=O)CCC3)C(=O)N1` (stereo not drawn), the T/C is 98 % of control (dose: 60.0 mg/kg/injection, schedule: Q01DX005 (ip), vehicle: Klucel (hydroxypropylcellulose) (HPC)) and 97 % of control (dose: 120.0 mg/kg/injection, schedule: Q01DX005 (ip), vehicle: Klucel (hydroxypropylcellulose) (HPC)).
For `c1ccc2c(CCc3c4ccccc4nc4ccccc34)c3ccccc3nc2c1`, the T/C is 102 % of control under setting [13]; 105 % of control (dose: 200.0 mg/kg/injection, schedule: Q01DX001 (ip), vehicle: Klucel (hydroxypropylcellulose) (HPC)); 105 % of control (dose: 400.0 mg/kg/injection, schedule: Q01DX001 (ip), vehicle: Klucel (hydroxypropylcellulose) (HPC)).
In the case of `CC1=C(/C=C/c2ccc(N(C)C)cc2)C(C)C(c2ccc(N(C)C)cc2)CC1=O` (stereo not drawn), the T/C runs as follows: (dose: 25.0 mg/kg/injection, schedule: Q01DX001 (ip), vehicle: Klucel (hydroxypropylcellulose) (HPC)) 88 % of control; (dose: 50.0 mg/kg/injection, schedule: Q01DX001 (ip), vehicle: Klucel (hydroxypropylcellulose) (HPC)) 94 % of control; under setting [13], 93 % of control.
For `COc1cccc(/C=N/NC(=O)c2c(-c3ccccc3)noc2C)c1O`, the T/C was 99 % of control under setting [14], 100 % of control under setting [15] and 110 % of control under setting [16].
With `Cc1nsc2[nH]c(=O)n(Nc3ccc(O)cc3)c(=O)c12`, the T/C is 174 % of control and 178 % of control under setting [6]; 180 % of control under setting [7].
`CCOC(=O)C1C(=O)N2C(=O)C(NC(C)=O)=C(O)C2C1c1ccc(C)cc1` (stereo not drawn): the T/C under setting [10] is 100 % of control, the T/C under setting [11] was 100 % of control and the T/C under setting [12] is 104 % of control.
`O=C1OCc2c1cc1cc3c(cc1c2-c1ccc2c(c1)OCO2)OCO3`: the T/C is, setting by setting: under setting [1], 91 % of control; under setting [2], 100 % of control; under setting [3], 100 % of control; under setting [4], 98 % of control.
As for `O=S(=O)(O)C(Nc1cccc(Cl)c1)c1ccccc1` (stereo not drawn), the T/C under setting [14] is 97 % of control, the T/C under setting [15] was 95 % of control and the T/C under setting [16] was 103 % of control.
Regarding `C[Si](C)(C)Cn1cccc1`, the T/C reads like this: under setting [8], 103 % of control; under setting [9], 102 % of control; (dose: 240.0 mg/kg/injection, schedule: Q01DX005 (ip), vehicle: saline with Tween-80) 94 % of control.
Regarding `OCC(O)C(O)C(O)/C=N\O` (stereo not drawn), the T/C was 98 % of control under setting [17]; 105 % of control under setting [18]; 98 % of control (dose: 200.0 mg/kg/injection, schedule: Q01DX009 (ip), vehicle: saline).
Turning to `Cc1ccc(C(=O)CCN(C)C)cc1`, the T/C reads like this: (dose: 6.25 mg/kg/injection, schedule: Q01DX009 (ip), vehicle: saline) 105 % of control; (dose: 12.5 mg/kg/injection, schedule: Q01DX009 (ip), vehicle: saline) 100 % of control; (dose: 25.0 mg/kg/injection, schedule: Q01DX009 (ip), vehicle: saline) 96 % of control; under setting [17], 98 % of control and 106 % of control; under setting [18], 107 % of control.
